“And” between values parts separate entries of the source, which are not always exact repeats. Equal values may be shown once. “Also recorded” adds a separate entry of the source. Where a name gives a salt, the structure may show the parent alone. Read-outs that look alike come from different tables or passages of the source.
Assays:
M^pro = details: read-out: Activity: IC50; cited from earlier work
SARS-CoV-2 [1] = details: cited from earlier work
wild type SARS-CoV-2 = test: microbe, parasite or virus in culture; type: cell-based; details: mean ± sd
SARS-CoV-2 RdRp complex = SARS-CoV-2 RdRp complex (Severe acute respiratory syndrome coronavirus 2, UniProt P0DTD1); test: biochemical
[2] = male, rhesus monkey, in vivo
[3] = rats, 4 h after oral administration; cited from earlier work
[4] = Pharmacokinetics in healthy rhesus macaques after nasogastric administration; details: 200 mg/kg nasogastric; for Cmax / AUC / MRT / half-life: rhesus monkey, plasma, 200 mg/kg
inflammatory cytokines = details: at 2.5 μM; cited from earlier work
cyclophilin A = target: cyclophilin A; set-up: method as in PMID 34677780; details: cited from earlier work
[5] = HIV-infected patients; cited from earlier work
[6] = cited from earlier work; for AUC0-∞: healthy human volunteers
[7] = twice daily, cited from earlier work
[8] = cited from earlier work
[9] = human, in vivo
cathepsin L = details: read-out: IC50 against cathepsin L; cited from earlier work
SARS-CoV-2 M^pro = SARS-CoV-2 M^pro (Severe acute respiratory syndrome coronavirus 2, UniProt P0DTD1); test: biochemical
[10] = test system: SARS-CoV-2 strain 20SF107; type: in vivo, rhesus macaques
[11] = test system: SARS-CoV-2 spike mediated cell fusion; details: at 10 μM; cited from earlier work
SARS-CoV-2 PL^pro = SARS-CoV-2 PL^pro (Severe acute respiratory syndrome coronavirus 2, UniProt P0DTD1); test: SARS-CoV-2 PL^pro inhibition assay; type: biochemical; details: read-out: inhibition rate against papain-like protease (PL^pro)
SARS-CoV-2 [12] = test: Randomized open-label clinical trial in mild/moderate COVID-19 patients, efficacy; type: in vivo
[13] = Lung distribution study in mouse; details: male, ICR, po
in vitro = details: African green monkey
[14] = Severe acute respiratory syndrome coronavirus 2, Vero C1008, Vero E6 cells
[15] = Severe acute respiratory syndrome coronavirus 2, Calu-3 cells
[16] = log-rank analysis, N = 5, NE = Not Evaluable

CC(C)(C)NC(=O)[C@@H](c1cccnc1)N(C(=O)c1ccco1)c1ccc(C(C)(C)C)cc1 [0EN]
IC50 (M^pro): 4.8 µM

CCOC(=O)CC[C@H](C[C@@H]1CCNC1=O)NC(=O)[C@H](CC=C(C)C)CC(=O)[C@@H](NC(=O)[C@H](CO)NC(=O)OC(C)(C)C)C(C)C [CYV]
IC50 (M^pro): 80 µM

Cc1cc(S(=O)(=O)c2c([N+](=O)[O-])cc(C(F)(F)F)cc2[N+](=O)[O-])c(Cl)cc1Cl [D3F]
IC50 (M^pro): 0.3 µM

O=C(Sc1n[nH]c(C(F)(F)F)n1)c1ccc(C#Cc2ccccc2)o1 [F3F]
IC50 (M^pro): 3 µM

CCC(CC)COC(=O)[C@H](C)N[P@](=O)(OC[C@H]1O[C@@](C#N)(c2ccc3c(N)ncnn23)[C@H](O)[C@@H]1O)Oc1ccccc1 [Remdesivir]
reduction of recovery time (SARS-CoV-2 [1]; hospitalized adults): 5 days
EC50 (wild type SARS-CoV-2; [14]): 1.01 ± 0.13 µM
EC50 (wild type SARS-CoV-2; [15]): 1.11 ± 0.17 µM

CC(C)C(=O)OC[C@H]1O[C@@H](n2ccc(NO)nc2=O)[C@H](O)[C@@H]1O [molnupiravir]
decrease of the risk of hospitalization or death (SARS-CoV-2 [1]; MOVe-OUT, non-hospitalized patients): 48%

Cc1c(O)cccc1C(=O)N[C@@H](CSc1ccccc1)[C@H](O)CN1C[C@H]2CCCC[C@H]2C[C@H]1C(=O)NC(C)(C)C [nelfinavir, Nelfinavir Mesylate]
IC50 (SARS-CoV-2 RdRp complex): 112 ± 8.2 µM
plasma concentration in infected relative to healthy rhesus macaques [2]: around 1/6
trough plasma concentration (Ctrough) [2]: 0.26 µM
plasma concentration at 5 h after dosing (C5h), average ([2]; 200 mg/kg): 0.55 µM
lung-to-plasma ratio [3]: 3.24
Tpeak ([4]; Monkey 1, healthy): 6.00 h
Tpeak ([4]; Monkey 2, healthy): 4.00 h
Cmax ([4]; oral, average maximum plasma concentration (Cmax), two healthy rhesus macaques): 3.2 µM
AUC ([4]; po, AUCon, Monkey 1, healthy): 28.4 µM·h
AUC ([4]; po, AUCon, Monkey 2, healthy): 10.6 µM·h
AUC ([4]; po, AUCtot, Monkey 1, healthy): 28.4 µM·h
AUC ([4]; po, AUCtot, Monkey 2, healthy): 10.7 µM·h
Cmax ([4]; po, Cmax, Monkey 1, healthy): 5.33 µM
Cmax ([4]; po, Cmax, Monkey 2, healthy): 1.07 µM
MRT ([4]; po, Monkey 1, healthy): 7.25 h
MRT ([4]; po, Monkey 2, healthy): 12 h
half-life ([4]; po, t1/2, Monkey 1, healthy): 4.46 h
half-life ([4]; po, t1/2, Monkey 2, healthy): 6.92 h
time at which Cmax was achieved after dosing ([4]; two healthy rhesus macaques): 5 h
inhibition of inflammatory cytokines in vitro (inflammatory cytokines): successfully inhibit
Kd (cyclophilin A): 0.94 µM
selectivity index (SI) (Vero E6 cells): 17.59
Cmax in PBMCs relative to plasma [5]: ~ 15 fold
cellular accumulation in PBMCs relative to plasma [5]: 5.30 fold
AUC0-∞ ([6]; dosage of 100 mg): 1250 ± 230 ng·h/mL
AUC0-∞ ([6]; dosage of 800 mg): 22208 ± 6306 ng·h/mL
plasma Ctrough,Morning ([6]; human, 1250 mg BID, ref VIRACEPT FDA Package Insert Reference ID: 3986049): 3.87 µM
Cmax ([6]; human, 1250 mg BID, ref VIRACEPT FDA Package Insert Reference ID: 3986049, read-out: plasma Cmax): 7.04 µM
EC50 (wild type SARS-CoV-2; [14]): 2.93 ± 0.32 µM
EC50 (wild type SARS-CoV-2; [15]): 1.86 ± 0.26 µM
maximum tolerated dosage (MTD) ([7]; adults with solid tumors): 3125 mg
maximum tolerated dosage (MTD) ([7]; liposarcoma, MTD not reached): > 4250 mg
concentration in the lung epithelial lining fluid versus plasma [8]: comparable to that in plasma
proportion of patients with detectable drug in bronchoalveolar lavage (BAL) fluid [8]: 100%
lung distribution in patients relative to plasma ([8]; human, in vivo): approximately three times as high as that of plasma
cases of grade 1 adverse events [9]: 15 cases
death of illness [9]: No patients died
grade of adverse events during the trial [9]: all grade 1
number of patients with grade 1 adverse events [9]: 10 patients
patients with abnormal sitting blood pressure, respiratory rate and pulse [9]: no clinically significant patients
proportion of patients with grade 1 adverse events [9]: 52.6%
IC50 (cathepsin L): 18 µM
IC50 (SARS-CoV-2 M^pro; IC50 against SARS-CoV-2 M^pro): 23 µM and > 20 µM
IC50 (SARS-CoV-2 M^pro; IC50 against SARS-CoV-2 main protease (M^pro)): 8.26 µM
body weight change compared with control monkeys ([10]; 200 mg/kg prophylactic, twice daily): not significant
body temperature compared with vehicle control monkeys ([10]; 200 mg/kg prophylactic, twice daily, […]): significantly lower
viral loads in extrapulmonary tissues, e.g. colon and heart, compared with control group ([10]; […], no statistical difference): increasing trends
reduction of viral replication in the lungs ([10]; at necropsy, prophylactic treatment): nearly three orders of magnitude; also recorded: approximately three orders of magnitude
reduction of virus RNA in lung (left lower lobe) compared to vehicle-treated monkeys ([10]; rhesus monkey, in vivo): 2.88 log
viral load in nasal swabs compared with control group ([10]; rhesus monkey, in vivo): Significant reductions; also recorded: significantly reduced; also recorded: significantly lower
viral load in rectal (anal) swabs compared with control group ([10]; rhesus monkey, in vivo): Significant reductions; also recorded: significantly reduced; also recorded: significantly lower
viral load in throat swabs compared with control group ([10]; rhesus monkey, in vivo): without significance
virus RNA in kidney samples ([10]; rhesus monkey, in vivo): could not be detected
inhibition of SARS-CoV-2 spike mediated cell fusion [11]: completely inhibit
inhibition at 100 µM (SARS-CoV-2 PL^pro): 33.3 ± 2.47%
proportion of subjects whose respiratory specimens were negative for SARS-CoV-2 RNA (SARS-CoV-2 [12]; 7th day of treatment, N = 19): 31.6%
proportion of cases with fever (SARS-CoV-2 [12]; 9/19): 47.4%
chest CT results of moderate COVID-19 (SARS-CoV-2 [12]; 14th day of treatment): one patient was abnormal and had no clinical significance
proportion of subjects whose respiratory specimens were negative for SARS-CoV-2 RNA (SARS-CoV-2 [12]; 14th day of treatment, N = 19): 68.4%
progression to severe or critical pneumonia (SARS-CoV-2 [12]; 14th day of treatment, patients with mild COVID-19 (N = 5)): no subjects
TTCR time (time to clinical recovery) (SARS-CoV-2 [12]; N = 5, control 11.0 days): 7.0 days
shortening of duration of fever time versus control group (SARS-CoV-2 [12]; P = 0.014): 3.8 days
shortening of median time for TTCR (SARS-CoV-2 [12]; P = 0.899): 4.0 days
average fever days (duration of fever time) in patients with fever (SARS-CoV-2 [12]; control 6.6 ± 4.1 days, P = 0.014): 2.8 days and 2.8 ± 1.6 days
progression of subjects with mild disease to pneumonia (SARS-CoV-2 [12]; day 7 of treatment): did not progress to pneumonia
time of TTCR, 25%(95%CI) (SARS-CoV-2 [12]; [16]): 4.0(1.0~ NE) d
time of TTCR, 50%(95%CI) (SARS-CoV-2 [12]; [16]): 7.0(1.0~ NE) d
time to convert to negative throat swab, 25%(95%CI) (SARS-CoV-2 [12]; log-rank analysis, N = 19): 5.0(1.0~9.0) d
time to convert to negative throat swab, 50%(95%CI) (SARS-CoV-2 [12]; log-rank analysis, N = 19): 9.0(5.0~11.0) d
time to convert to negative throat swab, 75%(95%CI) (SARS-CoV-2 [12]; log-rank analysis, N = 19): 12.0(9.0~22.0) d
shortening of duration of viral shedding versus control group (SARS-CoV-2 [12]; median, P = 0.055): 5.5 days
median time to convert to negative throat swab of SARS-CoV-2 (duration of viral shedding) (SARS-CoV-2 [12]; nelfinavir 1250 mg every 12 h, N = 19, control 14.5 days, P = 0.055): 9.0 days
Kp [13]: 2 to 3
Kp at 0.5 h ([13]; 250 mg/kg): 2.08 ± 0.5
Kp at 1 h ([13]; 250 mg/kg): 2.35 ± 0.34
Kp at 3 h ([13]; 250 mg/kg): 2.24 ± 0.59
Kp at 6 h ([13]; 250 mg/kg): 1.81 ± 0.19
Kp at 9 h ([13]; 250 mg/kg): 2.33 ± 0.28
Kp at 0.5 h ([13]; 750 mg/kg): 2.07 ± 0.42
Kp at 1 h ([13]; 750 mg/kg): 3.11 ± 0.82
Kp at 3 h ([13]; 750 mg/kg): 2.83 ± 0.33
Kp at 6 h ([13]; 750 mg/kg): 3.22 ± 0.63
Kp at 9 h ([13]; 750 mg/kg): 2.61 ± 0.08
CC50 (in vitro): 51.6 µM

CC(C)(C)[C@H](NC(=O)C(F)(F)F)C(=O)N1C[C@H]2[C@@H]([C@H]1C(=O)N[C@H](C#N)C[C@@H]1CCNC1=O)C2(C)C [nirmatrelvir]
decrease of the probability of hospitalization or mortality (SARS-CoV-2 [1]; EPIC-HR, non-hospitalized adults at high risk): 89%
rate of hospitalization owing to COVID-19 among treated patients (SARS-CoV-2 [1]; patients aged 40 to 64 years, Israel, omicron, untreated 15.8): 15.2 instances per 100,000 person-days

Source: article PMC10123561 (Signal Transduction and Targeted Therapy, 2023)
